Measured values taken from patent US11772141B1, “Method for targeted regulation of soil microbes to synchronize heavy metal/metalloid transformation and greenhouse gas emission reduction and use” (priority 2022, dated 2023).

Assays:
soil microbes = conditions: Met 1 mM, Met:Fat 1:10 in combinations
Experimental: 5 grams of arsenic-contaminated rice field soils taken from Hunan Province, China was placed into a 20 mL glass sample tube, 2.5 mL of sterilized culture medium was added, and then the glass sample tube was placed in an anaerobic glove box for cultivation. The culture medium was composed of 10 mM NH4Cl, 5 mM NaHCO3, 1 mM KH2PO4, 0.5 mM MgCl2, 0.5 CaCl2, 1 mL of L^−1 vitamin and 1 mL/L of trace elements. […] After addition of the Met and the Fat and after further reaction for 60 days, headspace gas was collected and measured by GC-TCD, a soil suspension was extracted, and ammonium dihydrogen phosphate was added to desorb adsorbed methyl arsenic. After the resulted soil suspension passed through a 0.22-micron membrane, methyl arsenic, including monomethylarsenic, dimethylarsenic and trimethylarsenic oxides, in a soil solution was measured by HPLC-ICPMS. […]
After further anaerobic culture for 60 days, headspace gas was collected and measured by GC-TCD, a soil suspension was extracted, and ammonium dihydrogen phosphate was added to desorb adsorbed methyl arsenic. After the resulted soil suspension passed through a 0.22-micron membrane, the methyl arsenic in the soil solution was measured by HPLC-ICPMS.

mcrA gene = conditions: soil control 1.5*10^6
Experimental: Construction of the plasmid standard was performed by ligating a vector pUC19 with a PCR product of arsM or mcrA gene. After a single clone was picked, plasmid DNA was extracted, the DNA concentration was measured with Qubit 3.0 Fluorometer, the gene copy number was calculated, and then the EASY dilution solution was diluted to 10^2-10^8(copy number per μL) to obtain a Standard curve.
mcrA amplification reaction program: at 95° C. for 10 min; at 95° C. for 15 s, at 58° C. for 30 s, and at 72° C. for 30 s, 40 cycles; and prolonging at 72° C. for 2 min.

arsM gene = conditions: soil control 950
Experimental: Construction of the plasmid standard was performed by ligating a vector pUC19 with a PCR product of arsM or mcrA gene. After a single clone was picked, plasmid DNA was extracted, the DNA concentration was measured with Qubit 3.0 Fluorometer, the gene copy number was calculated, and then the EASY dilution solution was diluted to 10^2-10^8(copy number per μL) to obtain a Standard curve. […] Information and reaction procedures of the primers used for amplification of the arsM and mcrA genes were as follows:
arsM amplification reaction program: at 95° C. for 10 min; at 95° C. for 30 s, at 60° C. for 45 s, and at 72° C. for 1 min, 40 cycles; and prolonging at 72° C. for 10 min;

Question: With `CSCC[C@H](N)C(=O)O` [methionine] as the compound, how does the “production of methyl arsenic” value (soil microbes; 60 days anaerobic reaction) read?
Answer: 0.1 µM

Question: And the methane emission (soil microbes; 60 days, control group 5.5 mM)?
Answer: 18.7 mM

Question: And the “transcript copy number of mcrA” value (mcrA gene)?
Answer: 2.0*10^7 copies per g of soils

Question: And the “transcript copy number of arsM” value (arsM gene)?
Answer: 1200 copies per g of soils
